The text below walks through data of US20250161321A1, “AMINO ACID BASED CARBAMATES AND/OR UREAS FOR THE TREATMENT OF SORTILIN DEPENDENT DISEASES” (Vesper Bio ApS, priority 2022, published 2025).

The structures appear in SMILES notation.

What is called IC50 is the concentration at which inhibition is half-maximal.

The target in the assay is h-Sortilin (Homo sapiens (Human), UniProt Q99523). In words: Neurotensin scintillation proximity assay (SORTILIN Binding Assay [3H]NT SPA). Conditions: displacement of 5 nM [3H]-neurotensin from 150 nM 6his-Sortilin; average of at least 2 determinations. How it is done: The exemplified compounds of the invention were tested in a Neurotensin (NTS) scintillation proximity assay (SPA). NTS, which is a 13 amino acid neuropeptide, is a sortilin ligand. The IC50 is a measure of the amount of the compound required to inhibit the binding of NTS to sortilin by 50%. The skilled person will recognise that the lower the IC50 value, the less of the compound needed to achieve the desired effect, and as a result, the chances of undesirable off-target effects are reduced.
Sequence of h-Sortilin (Q99523 78-831): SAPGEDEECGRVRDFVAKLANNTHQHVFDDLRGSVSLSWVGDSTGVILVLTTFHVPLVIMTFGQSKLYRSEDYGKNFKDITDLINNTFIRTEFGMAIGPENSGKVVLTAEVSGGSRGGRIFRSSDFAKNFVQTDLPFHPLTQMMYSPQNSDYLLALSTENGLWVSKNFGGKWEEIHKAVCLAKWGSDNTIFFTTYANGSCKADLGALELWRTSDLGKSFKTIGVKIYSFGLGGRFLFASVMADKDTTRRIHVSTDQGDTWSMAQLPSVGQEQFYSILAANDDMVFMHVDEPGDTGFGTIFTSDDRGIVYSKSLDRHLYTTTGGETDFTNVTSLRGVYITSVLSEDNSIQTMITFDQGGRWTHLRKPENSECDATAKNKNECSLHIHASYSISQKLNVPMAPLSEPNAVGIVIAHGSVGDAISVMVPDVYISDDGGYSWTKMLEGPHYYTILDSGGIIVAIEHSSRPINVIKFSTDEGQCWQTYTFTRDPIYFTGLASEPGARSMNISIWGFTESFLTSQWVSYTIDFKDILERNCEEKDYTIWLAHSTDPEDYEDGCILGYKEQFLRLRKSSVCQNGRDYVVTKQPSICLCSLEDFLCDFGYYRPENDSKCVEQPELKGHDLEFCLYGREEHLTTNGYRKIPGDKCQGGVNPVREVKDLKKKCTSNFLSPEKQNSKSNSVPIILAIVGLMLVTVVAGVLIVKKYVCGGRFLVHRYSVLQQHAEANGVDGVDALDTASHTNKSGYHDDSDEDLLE
Compound affinity was determined by measuring the displacement of [^3H]-neurotensin binding to h-Sortilin in SPA format. Total volume of 40 μl in 50 mM HEPES pH 7.4 assay buffer containing 100 mM NaCl, 2.0 mM CaCl2, 0.1% BSA and 0.1% Tween-20. Compound pre-incubation for 30 minutes at room temperature with 150 nM of 6his-Sortilin before 5 nM [3H]-Neurotensin and Ni chelate imaging beads (Perkin Elmer) were added, after 6 hours the plate was read on a ViewLux with 360 s exposure time. Dose-response evaluation of compounds was performed with 8 concentrations of drugs (covering 3 decades). IC50 values were calculated by nonlinear regression using the sigmoid concentration-response (variable slope) using CDD Vault software. All values reported are average of at least 2 determinations.
For orientation: Scintillation proximity formats need no separation of bound from free tracer.
`CC(C)(C)CC[C@H](NC(=O)NCc1ccccc1)C(=O)O` [Example 1, (2S)-2-[(benzylcarbamoyl)amino]-5,5-dimethylhexanoic acid]: the IC50 stood at 380 nM.

For the molecule `CN(Cc1ccccc1)C(=O)N[C@@H](CCC(C)(C)C)C(=O)O` [Example 2, (2S)-2-{[benzyl(methyl)carbamoyl]amino}-5,5-dimethylhexanoic acid], the IC50 was 430 nM.

The molecule `CC(C)(C)CC[C@H](NC(=O)OCc1ccccc1)C(=O)O` [Example 3, (2S)-2-{[(benzyloxy)carbonyl]amino}-5,5-dimethylhexanoic acid] yielded an IC50 of 560 nM. The figure for `CC(C)(C)CC[C@H](NC(=O)N1CCOCC1)C(=O)O` [Example 4, (2S)-5,5-dimethyl-2-[(morpholine-4-carbonyl)amino]hexanoic acid] is 260 nM; for `CC(C)(C)CC[C@H](NC(=O)N1CCCOCC1)C(=O)O` [Example 5, (2S)-5,5-dimethyl-2-[(1,4-oxazepane-4-carbonyl)amino]hexanoic acid] it is 370 nM.
